From PubChem BioAssay (NCI)
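These data come from cells grown in 96-well plates and exposed to compound for 48 hours at five concentrations. Here, GI50 denotes the concentration required for 50% inhibition of growth. The concentration for full growth arrest is given as TGI.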

Legend:
Assay in all cases: inhibition of tumour cell growth, NCI panel, 48 h
[1] = system: K-562 leukemia
[2] = system: UO-31 renal
[3] = system: ACHN renal
[4] = system: M14 melanoma
[5] = system: SF-295 CNS
[6] = system: DU-145 prostate
[7] = system: COLO 205 colon
[8] = system: SK-MEL-2 melanoma
[9] = system: NCI-H23 lung
[10] = system: OVCAR-5 ovarian
[11] = system: OVCAR-3 ovarian
[12] = system: CAKI-1 renal
[13] = system: MCF7 breast
[14] = system: MOLT-4 leukemia
[15] = system: 786-0 renal
[16] = system: T-47D breast
[17] = system: MDA-MB-468 breast
[18] = system: BT-549 breast
[19] = system: KM12 colon
[20] = system: HCT-116 colon
[21] = system: HOP-92 NSCLC
[22] = system: SK-MEL-5 melanoma
[23] = system: A498 renal
[24] = system: PC-3 prostate
[25] = system: SNB-75 CNS
[26] = system: HOP-62 NSCLC
[27] = system: SN12C renal
[28] = system: U251 CNS
[29] = system: HCC-2998 colon
[30] = system: HCT-15 colon
[31] = system: CCRF-CEM leukemia
[32] = system: MDA-MB-435
[33] = system: OVCAR-4 ovarian
[34] = system: SNB-19 CNS
[35] = system: NCI-H460 lung
[36] = system: MALME-3M melanoma
[37] = system: UACC-257 melanoma
[38] = system: UACC-62 melanoma
[39] = system: SF-539 CNS
[40] = system: IGROV1 ovarian
[41] = system: HL-60(TB) leukemia
[42] = system: RPMI-8226 leukemia
[43] = system: LOX IMVI melanoma
[44] = system: HT29 colon
[45] = system: SW-620 colon
[46] = system: HS 578T breast
[47] = system: NCI-H522 lung
[48] = system: MDA-MB-231 breast
[49] = system: SF-268 CNS
[50] = system: SK-OV-3 ovarian
[51] = system: SR leukemia
[52] = system: RXF 393 renal
[53] = system: NCI/ADR-RES ovarian
[54] = system: EKVX NSCLC
[55] = system: NCI-H226 lung
[56] = system: OVCAR-8 ovarian
[57] = system: A549 NSCLC
[58] = system: TK-10 renal
[59] = system: SK-MEL-28 melanoma

With CC(=O)c1ccc(Nc2nc(SCCC(C)C)nc(-c3ccc(F)cc3)c2C#N)cc1 the GI50 [1] was 32.2 µM, the TGI [1] was greater than 100 µM and the GI50 [2] was 5.01 µM. For the same compound, the TGI [2] was 25.7 µM, the GI50 [3] was 2.07 µM and the TGI [3] was 4.56 µM. It also gave a GI50 [4] of 24.2 µM, a TGI [4] greater than 100 µM and a GI50 [5] of 2.18 µM. The TGI [5] was 5.13 µM, the GI50 [6] was 10.7 µM and the TGI [6] was greater than 100 µM. For the same compound, the GI50 [7] was 7.42 µM, the TGI [7] was greater than 100 µM and the GI50 [8] was greater than 100 µM. It also gave a TGI [8] greater than 100 µM, a GI50 [9] of 5.86 µM and a TGI [9] of 39.6 µM. It also gave a GI50 [10] greater than 100 µM, a TGI [10] greater than 100 µM and a GI50 [11] of 13.3 µM. It also gave a TGI [11] of 72.8 µM, a GI50 [12] of 3.75 µM and a TGI [12] of 23.5 µM. The GI50 [13] was 7.51 µM, the TGI [13] was greater than 100 µM and the GI50 [14] was greater than 100 µM. For the same compound, the TGI [14] was greater than 100 µM, the GI50 [15] was 3.09 µM and the TGI [15] was 8.47 µM. For the same compound, the GI50 [16] was 4.19 µM, the TGI [16] was 74.5 µM and the GI50 [17] was 10.2 µM. It also gave a TGI [17] of 50.3 µM, a GI50 [18] of 12.7 µM and a TGI [18] greater than 100 µM. The GI50 [19] was 45.5 µM, the TGI [19] was greater than 100 µM and the GI50 [20] was 3.51 µM. It also gave a TGI [20] of 13.7 µM, a GI50 [21] of 2.95 µM and a TGI [21] of 16.6 µM. The GI50 [22] was 13.8 µM, the TGI [22] was 53.4 µM and the GI50 [23] was 2.84 µM. The TGI [23] was 8.8 µM, the GI50 [24] was 24.7 µM and the TGI [24] was greater than 100 µM. The GI50 [25] was 2.06 µM, the TGI [25] was 21.6 µM and the GI50 [26] was 3.99 µM. For the same compound, the TGI [26] was 16.3 µM, the GI50 [27] was 24 µM and the TGI [27] was greater than 100 µM. It also gave a GI50 [28] of 2.63 µM, a TGI [28] of 7.87 µM and a GI50 [29] of 21 µM. For the same compound, the TGI [29] was greater than 100 µM, the GI50 [30] was 9.87 µM and the TGI [30] was greater than 100 µM. The GI50 [31] was greater than 100 µM, the TGI [31] was greater than 100 µM and the GI50 [32] was 12.9 µM. It also gave a TGI [32] greater than 100 µM, a GI50 [33] of 7.2 µM and a TGI [33] of 93.3 µM. It also gave a GI50 [34] of 3.7 µM, a TGI [34] of 14.5 µM and a GI50 [35] of 3.24 µM. The TGI [35] was 12.5 µM, the GI50 [36] was 32.6 µM and the TGI [36] was greater than 100 µM. For the same compound, the GI50 [37] was greater than 100 µM, the TGI [37] was greater than 100 µM and the GI50 [38] was 30.2 µM. The TGI [38] was greater than 100 µM, the GI50 [39] was 3.69 µM and the TGI [39] was 16 µM. It also gave a GI50 [40] of 10.6 µM, a TGI [40] of 37.9 µM and a GI50 [41] greater than 100 µM. The TGI [41] was greater than 100 µM, the GI50 [42] was greater than 100 µM and the TGI [42] was greater than 100 µM. The GI50 [43] was 4.41 µM, the TGI [43] was 25.7 µM and the GI50 [44] was 5.53 µM. For the same compound, the TGI [44] was greater than 100 µM, the GI50 [45] was 16.7 µM and the TGI [45] was greater than 100 µM. The GI50 [46] was 3.06 µM, the TGI [46] was 10.1 µM and the GI50 [47] was 24 µM. The TGI [47] was greater than 100 µM, the GI50 [48] was 2.94 µM and the TGI [48] was 10.2 µM. For the same compound, the GI50 [49] was 4.85 µM, the TGI [49] was 97.4 µM and the GI50 [50] was 9.37 µM. The TGI [50] was 26.2 µM, the GI50 [51] was greater than 100 µM and the TGI [51] was greater than 100 µM. The GI50 [52] was 3.53 µM, the TGI [52] was 16.8 µM and the GI50 [53] was 4.31 µM. For the same compound, the TGI [53] was 27.5 µM, the GI50 [54] was 3.05 µM and the TGI [54] was 18.8 µM. The GI50 [55] was 3.82 µM, the TGI [55] was 22.4 µM and the GI50 [56] was 5.77 µM. It also gave a TGI [56] of 25.5 µM, a GI50 [57] of 3.85 µM and a TGI [57] greater than 100 µM. The GI50 [58] was 3.78 µM, the TGI [58] was 12.7 µM and the GI50 [59] was 29.6 µM. It also gave a TGI [59] greater than 100 µM.
